The values that follow come from ChEMBL document CHEMBL1201862, “PubChem BioAssay data set” (2004).

Each structure is given as a SMILES string.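 96-well plates; 48 h exposure; 5 concentrations. Endpoints by linear interpolation between flanking doses. Not reached: highest tested concentration assigned. At the GI50, growth is halved.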 Active and inactive are the calls of the source. Cut-off read from the data, not from the text of the source: active = GI50 up to about 1.1 µM and inactive = higher.

Some test systems named below: Malme-3M; SK-MEL-28; NCI-H460; SR; HOP-62; NCI-H23; HL-60; K562; SN12C; OVCAR-5; 786-0; Hs-578T; HCT-116; PC-3; CCRF-CEM; OVCAR-3; RXF 393; BT-549; IGROV-1; NCI/ADR-RES.
Holding throughout (experiment): inhibition of tumour cell growth, NCI panel, 48 h

Regarding `Cc1nc2c(O)c3c(c(O)c2nc1C)C1C=CC3CC1`, the GI50 with Malme-3M was 12.7 µM (inactive); with SK-MEL-28, 16.4 µM (inactive); in the assay with NCI-H460, 30.3 µM (inactive); with SR, 9590 nM (inactive); with HOP-62, 19.6 µM (inactive); in the assay on NCI-H23, 5.86 µM (inactive). Also, the GI50 is 973 nM (active) with HL-60; 2090 nM (inactive) with K562; 12.7 µM (inactive) with SN12C; 18.3 µM (inactive) in the assay on OVCAR-5; 13.9 µM (inactive) with 786-0; 32.1 µM (inactive) in the assay with Hs-578T. Besides, the GI50 is 6270 nM (inactive) in the assay on HCT-116; 9.35 µM (inactive) in the assay with PC-3; 1250 nM (inactive) in the assay on CCRF-CEM; 6.22 µM (inactive) in the assay on OVCAR-3; 9.23 µM (inactive) with RXF 393; 15.7 µM (inactive) with BT-549. Also, the GI50 in the assay with IGROV-1 was 7.31 µM (inactive); in the assay on NCI/ADR-RES, 3.71 µM (inactive).
`COc1cc(S(=O)(=O)Nc2nc(-c3ccc(/N=C/c4cccs4)cc3)cs2)ccc1Cl`: the GI50 in the assay on Malme-3M is > 100 µM (inactive); in the assay with SK-MEL-28, > 100 µM (inactive); in the assay on NCI-H460, > 100 µM (inactive); with SR it was 21700 nM (inactive); in the assay with HOP-62 it was > 100 µM (inactive); in the assay with NCI-H23, 47.1 µM (inactive). For the same molecule, the GI50 is 33900 nM (inactive) with HL-60; 33500 nM (inactive) in the assay with K562; 28.8 µM (inactive) in the assay on SN12C; > 100 µM (inactive) in the assay on OVCAR-5; > 100 µM (inactive) in the assay on 786-0; > 100 µM (inactive) in the assay on Hs-578T. Besides, the GI50 is 54600 nM (inactive) in the assay on HCT-116; 76.2 µM (inactive) in the assay with PC-3; 33700 nM (inactive) in the assay on CCRF-CEM; 27.5 µM (inactive) in the assay with OVCAR-3; 20.4 µM (inactive) in the assay on RXF 393; 37 µM (inactive) with BT-549. The GI50 in the assay with IGROV-1 is 33.7 µM (inactive); in the assay with NCI/ADR-RES it was > 100 µM (inactive).
`C=C(CN(C)C)C(=O)c1ccc(Oc2ccccc2)cc1`: the GI50 in the assay on Malme-3M was 3.85 µM (inactive); in the assay with SK-MEL-28, 7.66 µM (inactive); in the assay with NCI-H460, 27.3 µM (inactive); with SR it was 692 nM (active); in the assay on HOP-62 it was 19.7 µM (inactive); in the assay with NCI-H23, 7.71 µM (inactive). The GI50 in the assay with HL-60 is 695 nM (active); in the assay with K562, 1260 nM (inactive); with SN12C, 5.37 µM (inactive); in the assay on OVCAR-5, 7.4 µM (inactive); with 786-0, 2.15 µM (inactive); in the assay on Hs-578T, 8.73 µM (inactive). The GI50 was 2160 nM (inactive) in the assay on HCT-116; 3.98 µM (inactive) with PC-3; 272 nM (active) in the assay on CCRF-CEM; 4.86 µM (inactive) in the assay on OVCAR-3; 2.4 µM (inactive) in the assay on RXF 393; 6.18 µM (inactive) with BT-549. The values for the GI50 with IGROV-1 and with NCI/ADR-RES were 14.9 µM (inactive) and 6.75 µM (inactive), respectively.
Turning to `CCOP1(=O)CC(C)=C(Cl)C(O)C1` (stereo not given), the GI50 with Malme-3M was > 100 µM (inactive); with SK-MEL-28, > 100 µM (inactive); in the assay with NCI-H460 it was > 100 µM (inactive); with SR, > 100000 nM (inactive); in the assay on HOP-62, > 100 µM (inactive); in the assay on NCI-H23, > 100 µM (inactive). In addition, the GI50 with HL-60 is > 100000 nM (inactive); in the assay on K562, > 100000 nM (inactive); in the assay with SN12C it was > 100 µM (inactive); in the assay on OVCAR-5, > 100 µM (inactive); with 786-0, > 100 µM (inactive); in the assay with Hs-578T, > 100 µM (inactive). Further, the GI50 was > 100000 nM (inactive) with HCT-116; > 100 µM (inactive) with PC-3; > 100000 nM (inactive) with CCRF-CEM; > 100 µM (inactive) in the assay on OVCAR-3; > 100 µM (inactive) in the assay on RXF 393; > 100 µM (inactive) in the assay on BT-549. For the same molecule, the GI50 with IGROV-1 and in the assay with NCI/ADR-RES was > 100 µM (inactive) in each case.
As to `CCCC(=O)Nc1cc(/C=C/C(=O)N2CC(CCl)c3c2cc(OC(C)=O)c2[nH]cc(C)c32)n(C)c1` (stereo not given), the GI50 was 3.23e-05 µM (active) in the assay with Malme-3M; 4.52e-05 µM (active) with SK-MEL-28; < 2.5e-05 µM (active) with NCI-H460; < 0.025 nM (active) in the assay with SR; 4.63e-05 µM (active) in the assay on HOP-62; < 2.5e-05 µM (active) with NCI-H23. In addition, the GI50 with HL-60 is < 0.025 nM (active); with K562, 0.0306 nM (active); with SN12C it was 7.18e-05 µM (active); in the assay on OVCAR-5 it was 7.24e-05 µM (active); with 786-0, < 2.5e-05 µM (active); in the assay with Hs-578T, 6.56e-05 µM (active). The GI50 with HCT-116 is < 0.025 nM (active); in the assay on PC-3, 5.01e-05 µM (active); with CCRF-CEM, < 0.025 nM (active); with OVCAR-3 it was < 2.5e-05 µM (active); in the assay with RXF 393, < 2.5e-05 µM (active); in the assay with BT-549, 8.09e-05 µM (active). The GI50 with IGROV-1 is 3.76e-05 µM (active); with NCI/ADR-RES, 0.00024 µM (active).
Regarding `COc1ccc(CC2c3cc(Oc4cc(CC5c6cc(OC)c(OC)cc6CCN5C)ccc4O)c(OC)cc3CCN2C)cc1` (stereo not given), the GI50 with Malme-3M was 10.1 µM (inactive); with SK-MEL-28, 7.8 µM (inactive); with NCI-H460, 6.98 µM (inactive); in the assay with SR, 1430 nM (inactive); in the assay with HOP-62, 7.93 µM (inactive); in the assay on NCI-H23, 8.18 µM (inactive). For the same molecule, the GI50 with HL-60 was 7780 nM (inactive); in the assay on K562 it was 1360 nM (inactive); in the assay on SN12C it was 8 µM (inactive); in the assay with OVCAR-5 it was 9.44 µM (inactive); with 786-0, 3.02 µM (inactive); in the assay on Hs-578T it was 9.62 µM (inactive). Further, the GI50 in the assay on HCT-116 was 2220 nM (inactive); in the assay with PC-3, 5.47 µM (inactive); in the assay on CCRF-CEM, 519 nM (active); in the assay on OVCAR-3, 8.05 µM (inactive); with RXF 393, 5.92 µM (inactive); in the assay with BT-549, 6.64 µM (inactive). In addition, the GI50 with IGROV-1 was 8.59 µM (inactive); in the assay with NCI/ADR-RES, 7.48 µM (inactive).
Consider `COc1ccc(NC/C=C/C(=C/COC(C)=O)OC(C)=O)cc1`, for which the GI50 is 2.34 µM (inactive) with Malme-3M; 1.87 µM (inactive) in the assay on SK-MEL-28; 2.08 µM (inactive) in the assay with NCI-H460; 514 nM (active) in the assay on SR; 2.42 µM (inactive) in the assay with HOP-62; 2.06 µM (inactive) with NCI-H23. For the same molecule, the GI50 with HL-60 was 2270 nM (inactive); in the assay on K562, 1850 nM (inactive); in the assay on SN12C, 2.12 µM (inactive); with OVCAR-5, 1.75 µM (inactive); in the assay with 786-0, 1.18 µM (inactive); in the assay on Hs-578T it was 2.12 µM (inactive). Further, the GI50 with HCT-116 is 1810 nM (inactive); in the assay on PC-3, 2.28 µM (inactive); in the assay on CCRF-CEM, 1770 nM (inactive); in the assay with OVCAR-3 it was 2 µM (inactive); in the assay on RXF 393 it was 1.6 µM (inactive); in the assay with BT-549, 1.59 µM (inactive). Besides, the results for the GI50 with IGROV-1 and in the assay on NCI/ADR-RES were 1.8 µM (inactive) and 2.59 µM (inactive), respectively.
In the case of `Cc1ccc2c3ccc4c(c3n(C)c2c1)C(=O)C=CC4=O`, the GI50 with Malme-3M was 2.58 µM (inactive); in the assay on SK-MEL-28, > 6.01 µM (inactive); in the assay with NCI-H460, > 10 µM (inactive); in the assay with SR, 1420 nM (inactive); with HOP-62 it was > 10 µM (inactive); with NCI-H23, > 9.23 µM (inactive). The GI50 with HL-60 was 1040 nM (active); with K562 it was 1030 nM (active); in the assay with SN12C, > 10 µM (inactive); with OVCAR-5, > 10 µM (inactive); in the assay on 786-0, 2.33 µM (inactive); in the assay with Hs-578T, > 10 µM (inactive). Further, the GI50 in the assay on HCT-116 was 2330 nM (inactive); in the assay on PC-3 it was > 10 µM (inactive); with CCRF-CEM, 335 nM (active); with OVCAR-3, 2.52 µM (inactive); in the assay on RXF 393, 4.25 µM (inactive); with BT-549, 3.32 µM (inactive). Moreover, the GI50 is > 10 µM (inactive) in the assay with IGROV-1 and > 5.89 µM (inactive) in the assay on NCI/ADR-RES.
In the case of `CCN(CC)CCC(=O)c1ccc(Cl)c(Cl)c1`, the GI50 is 24.7 µM (inactive) in the assay on Malme-3M; 16.6 µM (inactive) in the assay on SK-MEL-28; > 100 µM (inactive) with NCI-H460; 24300 nM (inactive) in the assay on SR; > 100 µM (inactive) in the assay on HOP-62; > 10 µM (inactive) with NCI-H23. The GI50 with HL-60 was 32300 nM (inactive); in the assay with K562, 24800 nM (inactive); in the assay with SN12C, 39.3 µM (inactive); in the assay on OVCAR-5, > 100 µM (inactive); in the assay on 786-0, 17.5 µM (inactive); with Hs-578T, 17.1 µM (inactive). The GI50 with HCT-116 is 27500 nM (inactive); with PC-3 it was 32.1 µM (inactive); with CCRF-CEM, 17600 nM (inactive); with OVCAR-3, > 10 µM (inactive); in the assay on RXF 393, 12.5 µM (inactive); with BT-549, 21.2 µM (inactive). For the same molecule, the GI50 is 39.5 µM (inactive) in the assay with IGROV-1 and 34.1 µM (inactive) in the assay with NCI/ADR-RES.
